Measured values: US5169860A, “Antitumor compositions and methods of treatment” (Eli Lilly and Company, priority 1992, dated 1992)
Read-outs that look alike come from different tables or passages of the source.

Test system: 6C3HED lymphosarcoma
Experiment: animal or person
Type: in vivo, C3H mice
Conditions: for Toxic/Total (mice which died relative to total number of animals in the group): mouse, in vivo
Protocol: The compounds were tested in C3H mice bearing a 6C3HED lymphosarcoma, also known as the Gardner lymphosarcoma (GLS). The 6C3HED lymphosarcoma was obtained from the Division of Cancer Treatment, National Cancer Institute, Tumor Bank, maintained at E. G. and G. Mason Research (Worcester, Massachusetts).
First passage tumor was stored in liquid nitrogen using standard techniques. The transplanted tumor was reestablished from the Tumor Bank every six months or as needed. The tumor was maintained by serial passage twice weekly in C3H mice.
In the procedures utilized here, the tumor was removed from passage animals and minced into 1- to 3-mm cubic fragments using sterile techniques. Tumor pieces were checked for sterility using both Antibiotic Medium 1 and Brain Heart Infusion (Difco, Detroit, Michigan). The tumor pieces were implanted into the recipient C3H mice subcutaneously in an auxillary site by trochar.
Drug therapy on the appropriate schedule was initiated seven days after tumor implantation. The compound being tested was mixed with 2.5% Emulphor EL620 from GAF Corporation (1:40 dilution in 0.9% saline). The total dosage volume for each administration was 0.5 mL. All animals were weighed at the beginning and end of administration of the subject compounds. Food and water were provided ad libitum
Each control group and each dosage level of the treated groups generally consisted of 10 mice selected at random from the pool of implanted animals. The formulations were administered orally by gavage with the use of an 18-gauge needle. Compounds were dosed daily for 10 days.
The tumor was measured five days after treatment ended with two dimensional measurements (width and length) of the tumor taken using digital electronic calipers interfaced to a microcomputer. J. F. Worzalla, et al.. Investicational New Drugs. 8:241-251 (1990). Tumor weights were calculated from these measurements using the following formula:
Tumor weight (mg)=[tumor length (mm)×[tumor width (mm)]2].div.2
At least one control group of an equal number of mice was treated with the same volume of 2.5% Emulphor only. The percent inhibition was determined by subtracting the ratio of the mean tumor size of the test group relative to the control group from one and multiplying the result by 100.
The results of several experiments in mice bearing the 6C3HED lymphosarcoma when the instant compounds were administered orally are provided in the following table. In this table, column 1 gives the example number of the compound of Formula I administered; column 2 gives the dosage level of the compound in milligrams per kilogram of body weight; column 3 describes the percent inhibition of tumor growth; and column 4 tallies the number of mice which died during the course of the experiment relative to the total number of animals in the group.

[1] = Mus musculus, 6C3HED, 120 h, oral gavage, daily for 10 days, tumor measured five days after treatment ended, read-out: Percent Inhibition of tumor growth
[2] = Mus musculus, 6C3HED, 240 h, second listing (groups of 8), oral gavage, daily for 10 days, read-out: Percent Inhibition of tumor growth

Row | SMILES | inhibition in vivo at 150 mg/kg [1] [%] | Toxic/Total (mice which died relative to total number of animals in the group) | inhibition in vivo at 300 mg/kg [1] [%] | also measured
1 | O=C(Nc1ccc(Cl)cc1)NS(=O)(=O)c1cc2ccccc2o1 [Example 1, N-[[(4-chlorophenyl)amino]carbonyl]-2-benzofuransulfonamide] | 84 | 4/10 | – | –
2 | Cc1ccc(NC(=O)NS(=O)(=O)c2cc3ccccc3o2)cc1 [Example 2, N-[[(4-methylphenyl)amino]carbonyl]-2-benzofuransulfonamide] | 11 | 0/10 | 37 | –
3 | O=C(Nc1ccc(Cl)c(Cl)c1)NS(=O)(=O)c1cc2ccccc2o1 [Example 3, N-[[(3,4 dichlorophenyl)amino]carbonyl]-2-benzofuransulfonamide] | 28 | – | 28 | –
4 | O=C(Nc1ccc(Br)cc1)NS(=O)(=O)c1cc2ccccc2o1 [Example 4, N-[[(4-bromophenyl)amino]carbonyl]-2-benzofuransulfonamide] | 48 | 1/10 | – | –
5 | O=C(Nc1ccc(Cl)cc1)NS(=O)(=O)c1cccc2occc12 [Example 5, N-[[(4-chlorophenyl)amino]carbonyl]-4-benzofuransulfonamide] | 84 | – | 100 | –
6 | O=C(Nc1ccc(Cl)cc1)NS(=O)(=O)c1ccc2occc2c1 [Example 6, N-[[(4-chlorophenyl)amino]carbonyl]-5-benzofuransulfonamide hemihydrate] | 100 | – | – | inhibition in vivo at 10 mg/kg (Mus musculus, 6C3HED, 120 h, 10 mg/kg, oral gavage, daily for 10 days, tumor measured five days after treatment ended, read-out: Percent Inhibition of tumor growth): 0%; inhibition in vivo at 20 mg/kg [1]: 7%; inhibition in vivo at 40 mg/kg [1]: 53%; inhibition in vivo at 80 mg/kg [1]: 96%
7 | Cc1ccc(NC(=O)NS(=O)(=O)c2ccc3occc3c2)cc1 [Example 7, N-[[(4-methylphenyl)amino]carbonyl]-5-benzofuransulfonamide] | 84 | – | 100 | –
8 | O=C(Nc1ccc(Cl)cc1)NS(=O)(=O)c1ccc2ccoc2c1 [Example 8, N-[[(4-chlorophenyl)amino]carbonyl]-6-benzofuransulfonamide] | – | – | – | inhibition in vivo at 20 mg/kg [1]: 45%; inhibition in vivo at 40 mg/kg [1]: 45%; inhibition in vivo at 80 mg/kg [1]: 93%; inhibition in vivo at 160 mg/kg (Mus musculus, 6C3HED, 120 h, 160 mg/kg, oral gavage, daily for 10 days, tumor measured five days after treatment ended, read-out: Percent Inhibition of tumor growth): 100%; inhibition in vivo at 40 mg/kg [2]: 92%; inhibition in vivo at 80 mg/kg [2]: 98%
9 | O=C(Nc1ccc(Cl)cc1)NS(=O)(=O)c1cc2ccccc2[nH]1 [Example 9, N-[[(4-chlorophenyl)amino]carbonyl]-lH-indole-2-sulfonamide] | 26 | – | 57 | –
10 | O=C(Nc1ccc(Cl)cc1)NS(=O)(=O)c1ccc2cc[nH]c2c1 [Example 10, N-[[(4-chlorophenyl)amino]carbonyl]-lH-indole-6-sulfonamide] | 37 | 0/10 | 80 | –
11 | O=C(Nc1ccc(Cl)cc1)NS(=O)(=O)c1cc2ccccc2s1 [Example 11, N-[[(4-chlorophenyl)amino]carbonyl]benzo[B]thiophene-2-sulfonamide] | 47 | – | 66 | –
12 | O=C(Nc1ccc(Cl)cc1)NS(=O)(=O)c1csc2ccccc12 [Example 12, N-[[(4-chlorophenyl)amino]carbonyl]benzo[B]thiophene-3-sulfonamide] | 43 | 0/10 | 69 | –
13 | O=C(Nc1ccc(Cl)cc1)NS(=O)(=O)c1ccc2sccc2c1 [Example 13, N-[[(4-chlorophenyl)amino]carbonyl]benzo[B]thiophene-5-sulfonamide] | – | 0/8 | – | inhibition in vivo at 40 mg/kg [1]: 8%; inhibition in vivo at 80 mg/kg [1]: 44%
